pIC50: −log10 of the molar value.

The target in one test is mTOR (Homo sapiens, UniProt P42345). Description: mTOR LanthaScreen (TR-FRET, phosphorylation of 4EBP1). It is filed as biochemical. The following applies: phosphorylation of GFP-4E-BP1, 10 μM ATP, 90 minutes. Here is the method:
The mTOR LanthaScreen is a TR-FRET assay measuring the phosphorylation of mTOR's substrate 4EBP1. 384 well compound plates were prepared containing 1 μl of compound per well starting at 5 mM and diluted 1:2 across the row, resulting in a 22 well serial dilution. 24 μl of assay buffer (Invitrogen, PV4794) with 2 mM DTT was added to the compound plate in rows 1-24 using the VELOCITY 11™ VPREP™ 384 ST resulting in a DMSO concentration of 4%. The compound plate was mixed and 2.5 μl of serially diluted compound or controls was added to the assay plate (Costar, 3658).
The assay was conducted on the PerkinElmer® FlexDrop PLUS. A 5 μl mix of 800 nM GFP-4E-BP1 (Invitrogen, PV4759) and 20 μM ATP (Amgen) was added to rows 1-24. 2.5 μl of 0.6 μg/ml of mTOR Enzyme (Amgen) was added to rows 1-23. 2.5 μl of assay buffer was added to row 24 for the low control. The final concentration of the compounds was 50 μM serially diluted to 23.84 pM in 1% DMSO. […] The final concentrations in the assay reagents were 400 nM GFP-4E-BP1, 10 μM of ATP and 0.15 μg/ml of mTOR enzyme. The compound, enzyme, and substrate were incubated for 90 minutes. At this point, 10 μl of stop solution was added (20 mM Tris, pH 7.5 (Invitrogen, 15567-027), 0.02% Sodium Azide (Teknova, S0208), 0.01% NP-40 (Roche, 11754599001), 20 mM EDTA (Invitrogen, 15575-038) and 4 nM of Tb-anti-p4E-BP1 (Invitrogen, PV4758)) for a final concentration of 2 nM of Tb-anti-p4E-BP1.
Sixty minutes later the plates were read on the PerkinElmer® EnVision™ 2103 Multilable Reader using the Excitation filter 340 nm and the Emission filters 520 nm and 495 nm.
In general terms: TR-FRET usually uses a lanthanide donor and a delayed reading to cut background.

For test [1], the system named is phosphorylation of Akt at Serine 473 in U87 MG cells. The test can be described thus: pAkt AlphaScreen (U87 cell). In kind it is cell-based. The conditions noted are these: pAkt at Serine 473, U87 MG cells, two hours with compound. The procedure: The pAkt AlphaScreen® assay (PerkinElmer, Waltham, Mass.) determines whether there is phosphorylation of Akt at Serine 473 by recruitment of a phosphospecific antibody. This assay was performed using U87 MG cells. The U87 growth media consists of MEM (Gibco, Carlsbad, Calif.) supplemented with 10% FBS (Gibco), 1× Non-Essential Amino Acids (Gibco,) and 1× Penicillin/Streptomycin/Glutamine (Gibco). The cells were maintained weekly using 0.05% Trypsin (Gibco) and replated in 150 mm TC— Treated Culture Dishes (Corning, Corning, N.Y.).
The first day of the assay, the adherent cells were trypsinized, media was added to the loose cells and cells were mixed to a homogenous mixture. 0.5 ml of the homogenous mixture was counted on the Beckman Coulter® Vi-Cell™ XR (Fullerton, Calif.). 50 frames of cells were counted and the number of viable cells was determined. The cells were then diluted to 0.25 million cells per ml, and centrifuged at 200 rcf for 5 minutes. The media was removed and the cells were reconstituted in fresh media for plating. The cells were plated at 20 μl per well on the PerkinElmer® FlexDrop PLUS in Low Volume 384 Well White Tissue Culture Plates (Corning) with a final cell density of 5K cells per well. The plates were incubated overnight at 37° Celsius, 5% CO2.
On the second day, the compound plates were prepared, the cells were treated with compound and the pAkt reaction mix was added to the cell lysate. 384 well compound plates were prepared containing 1 μl of compound per well starting at 5 mM and diluted 1:2 across the row, resulting in a 22 well serial dilution. 39 μl of growth media was added to the compound plate in rows 1-22 using the PerkinElmer® FlexDrop PLUS resulting in a DMSO concentration of 2.5%. The cell plates and diluted compound plates were put onto the VELOCITY11™ VPREP™ 384 ST where the compound plate was mixed and 5 μl of serially diluted compound or controls was added to the cell plate. The final concentration of the compounds was 25 μM serially diluted to 11.9 pM in 0.5% DMSO.
The cell plates were then incubated with compound for two hours at 37° C., 5% CO2. After two hours, the media in the cell plates was aspirated using the BioTek® ELx405HT plate washer (Winooski, Vt.) removing the majority of media and compound without disturbing the adherent U87 cells. The following assay reagents are components of the SureFire® Akt (Ser 473) Phosphorylation 50K Point Kit (TGR BioSciences, Adelaide, Austalia) and an IgG Detection Kit (PerkinElmer, Waltham, Mass.). 5 μl of 1× Lysis Buffer was added to each well using the PerkinElmer® FlexDrop PLUS. The plates were then incubated at room temperature on a shaker for ten minutes. The AlphaScreen® reaction was prepared under low light conditions (subdued or green light) including p-Aid (Ser 473) Reaction Buffer, Dilution Buffer, Activation Buffer, Acceptor Beads and Donor Beads at a ratio of 40:20:10:1:1 respectively. The AlphaScreen® reaction was added to the cell lysate at 6 μl per well using the PerkinElmer® FlexDrop PLUS. The plates were placed in a humid environment to reduce edge effects and incubated overnight at room temperature with restricted air flow in the dark.
On the final day of the experiment, the plates were read on the PerkinElmer® EnVision™ 2103 Multilable Reader using the standard AlphaScreen® readout. The POC is calculated and the data is analyzed to report the IC50 IP for pAkt at Serine 473.
Activity data for the compounds tested in the PI3K cell based Akt assay is provided in Table 1 under the column heading U87
A general note: Bead proximity is the source of the signal in Alpha formats.

One may read the pIC50 as the IC50 on a negative log10 scale, so that one unit is a factor of ten. As for `CSc1cccc(-c2ccc3nc(Nc4cc[nH]n4)c(-c4nc(C)nc(N)n4)n3c2)c1` [Cpd 109, 3-(4-amino-6-methyl-1,3,5-triazin-2-yl)-6-(3-(methylsulfanyl)phenyl)-N-1H-pyrazol-3-ylimidazo[1,2-a]pyridin-2-amine], the pIC50 against mTOR was 7.30; in test [1] (Homo sapiens, U-87 MG, 2 h), 6.66.
For the compound `Cc1nc(N)cc(-c2c(Nc3cc[nH]n3)nc3cccnn23)n1` [Cpd 7, 3-(6-amino-2-methylpyrimidin-4-yl)-N-(1H-pyrazol-3-yl)imidazo[1,2-b]pyridazin-2-amine], the pIC50 was 7.96 on mTOR and 7.70 in test [1] (Homo sapiens, U-87 MG, 2 h).
As to `Cc1nc(N)nc(-c2c(Nc3cnn(C(=O)Oc4ccccc4)c3)nc3ccccn23)n1` [Cpd 209, phenyl 4-((3-(4-amino-6-methyl-1,3,5-triazin-2-yl)imidazo[1,2-a]pyridin-2-yl)amino)-1H-pyrazole-1-carboxylate], the pIC50 against mTOR was 6.52; in test [1] (Homo sapiens, U-87 MG, 2 h), 6.96.
Regarding `Cc1nc(NC(=O)N(C)C)cc(-c2c(Nc3cc[nH]n3)nc3cccnn23)n1` [Cpd 75, 1,1-dimethyl-3-(2-methyl-6-(2-(1H-pyrazol-3-ylamino)imidazo[1,2-b]pyridazin-3-yl)-4-pyrimidinyl)urea], the pIC50 against mTOR was 5.85; in test [1] (Homo sapiens, U-87 MG, 2 h) it was 6.10.
For the compound `Cc1nc(N)nc(-c2c(Nc3ccn[nH]3)nc3ccc(CCC(O)CO)cn23)n1` (centres unmarked) [Cpd 291, 4-(3-(4-amino-6-methyl-1,3,5-triazin-2-yl)-2-(1H-pyrazol-5-ylamino)-midazo[1,2-a]pyridin-6-yl)-1,2-butanediol], the pIC50 against mTOR was 5.92; in test [1], 6.77.
As for `Cc1nc(N)nc(-c2c(Nc3cc[nH]n3)nc3cc(C4=CCN(C(=O)OC(C)(C)C)CC4)ccn23)n1` [Cpd 183, tert-butyl 4-(3-(4-amino-6-methyl-1,3,5-triazin-2-yl)-2-(1H-pyrazol-3-ylamino)imidazo[1,2-a]pyridin-7-yl)-3,6-dihydro-1(2H)-pyridinecarboxylate], the pIC50 on mTOR is 6.34; in test [1] (Homo sapiens, U-87 MG, 2 h), 6.12.
With `CNC(=O)c1ccc(-c2ccc3nc(Nc4cc[nH]n4)c(-c4nc(C)nc(N)n4)n3c2)cc1F` [Cpd 99, 4-(3-(4-amino-6-methyl-1,3,5-triazin-2-yl)-2-(1H-pyrazol-3-ylamino)imidazo[1,2-a]pyridin-6-yl)-2-fluoro-N-methylbenzamide], the pIC50 was 8.40 on mTOR and 8.00 in test [1] (Homo sapiens, U-87 MG, 2 h).
In the case of `CNS(=O)(=O)c1ccc(-c2ccc3nc(Nc4cc[nH]n4)c(-c4nc(C)nc(N)n4)n3c2)cc1` [Cpd 351, 4-(3-(4-amino-6-methyl-1,3,5-triazin-2-yl)-2-(1H-pyrazol-3-ylamino)imidazo[1,2-a]pyridin-6-yl)-N-methylbenzenesulfonamide], the pIC50 against mTOR is 6.64; in test [1] (Homo sapiens, U-87 MG, 2 h), 7.52.
As for `Cc1nc(Nc2cc(OCC(F)(F)F)cnn2)cc(-c2c(Nc3cc[nH]n3)nc3cccnn23)n1` [Cpd 60, 3-(2-methyl-6-((5-(2,2,2-trifluoroethoxy)-3-pyridazinyl)amino)-4-pyrimidinyl)-N-1H-pyrazol-3-ylimidazo[1,2-b]pyridazin-2-amine], the pIC50 was 8.00 against mTOR and 7.70 in test [1] (Homo sapiens, U-87 MG, 2 h).
On to `COc1ccc(Nc2cc(-c3c(Nc4cc[nH]n4)nc4cccnn34)nc(C)n2)cc1` [Cpd 33], for which the pIC50 against mTOR is 5.55; in test [1] (Homo sapiens, U-87 MG, 2 h), 6.54.
On the same counts, the results for `Cc1nc(N)cc(-c2c(Nc3ccc(NC(=O)Nc4ccncc4)cc3)nc3ccccn23)n1` [Cpd 57, 1-(4-((3-(6-amino-2-methyl-4-pyrimidinyl)imidazo[1,2-a]pyridin-2-yl)amino)phenyl)-3-(4-pyridinyl)urea] are 8.00 and 7.15.
Turning to `Cc1nc(NCC#N)cc(-c2c(Nc3cc[nH]n3)nc3cccnn23)n1` [Cpd 90], the pIC50 against mTOR was 7.52; in test [1] (Homo sapiens, U-87 MG, 2 h) it was 7.70.
In the case of `Cc1nc(N)nc(-c2c(Nc3cc[nH]n3)nc3ccc(-c4ccc5c(c4)CCNC5=O)cn23)n1` [Cpd 175, 6-(3-(4-amino-6-methyl-1,3,5-triazin-2-yl)-2-(1H-pyrazol-3-ylamino)imidazo[1,2-a]pyridin-6-yl)-3,4-dihydro-1(2H)-isoquinolinone], the pIC50 against mTOR is 8.70; in test [1] (Homo sapiens, U-87 MG, 2 h) it was 7.52.
The like results for `Cc1nc(N)cc(-c2c(Nc3ccn(C)n3)nc3ccc(-c4cccc(S(C)(=O)=O)c4)cn23)n1` [Cpd 65, 3-(6-amino-2-methyl-4-pyrimidinyl)-N-(1-methyl-1H-pyrazol-3-yl)-6-(3-(methylsulfonyl)phenyl)imidazo[1,2-a]pyridin-2-amine] were, in that order, 6.47 and 6.42.
On the same counts, the results for `Cc1nc(N)nc(-c2c(Nc3ccn(C(=O)Nc4ccccc4)n3)nc3ccccn23)n1` [Cpd 204, 3-((3-(4-amino-6-methyl-1,3,5-triazin-2-yl)imidazo[1,2-a]pyridin-2-yl)amino)-N-phenyl-1H-pyrazole-1-carboxamide] are 7.05 and 7.05.
For `Cc1nc(NC(=O)CC(F)(F)F)cc(-c2c(Nc3ccn(C)n3)nc3cccnn23)n1` [Cpd 134, 3,3,3-trifluoro-N-(2-methyl-6-(2-((1-methyl-1H-pyrazol-3-yl)amino)imidazo[1,2-b]pyridazin-3-yl)-4-pyrimidinyl)propanamide], the pIC50 was 6.09 against mTOR and 6.68 in test [1] (Homo sapiens, U-87 MG, 2 h).
Consider `Cc1nc(N)cc(-c2c(Nc3cccc(N4CCN(C)CC4)c3)nc3cccnn23)n1` [Cpd 151, 3-(6-amino-2-methyl-4-pyrimidinyl)-N-(3-(4-methyl-1-piperazinyl)-phenyl)imidazo[1,2-b]pyridazin-2-amine], for which the pIC50 at mTOR was 6.37; in test [1] (Homo sapiens, U-87 MG, 2 h), 5.27.
With `COCCOc1ccn2c(-c3nc(C)nc(N)n3)c(Nc3cc[nH]n3)nc2c1` [Cpd 185, 3-(4-amino-6-methyl-1,3,5-triazin-2-yl)-7-(2-methoxyethoxy)-N-1H-pyrazol-3-ylimidazo[1,2-a]pyridin-2-amine], the pIC50 was 7.40 at mTOR and 7.30 in test [1] (Homo sapiens, U-87 MG, 2 h).
On the same counts, the results for `Cc1nc(Nc2cccnn2)cc(-c2c(Nc3ccn(C)n3)nc3cccnn23)n1` [Cpd 34, N-(1-methyl-1H-pyrazol-3-yl)-3-(2-methyl-6-(3-pyridazinylamino)-4-pyrimidinyl)imidazo[1,2-b]pyridazin-2-amine] are 6.36 and 7.22.

The record behind these values is patent publication US20120190666A1, “Heteroaryl Compounds as PIKK Inhibitors” (Amgen Inc., priority 2009, published 2012).
